ChEMBL document CHEMBL1130372, “Synthesis and evaluation of putative oxocarbenium intermediate mimic in the KDO8P synthase-catalyzed reaction as a tool for the design of potent inhibitors for lipopolysaccharide biosynthesis” (Bioorg Med Chem Lett, 1997)

Experiment: The inhibitory activity was evaluated against homogeneous KDO 8-P synthase from Escherichia coli by varying PEP at saturating concentrations of A5P (0.5 mM)

Q: With O=C(O)CN(CC(O)C(O)C(O)[C@H](O)COP(=O)(O)O)CP(=O)(O)O (stereo partly specified) as the compound, how does the Ki read?
A: 3.3 µM
